Test results from US20110098223A1, “USE OF THE PAT NANOPEPTIDE IN THE TREATMENT OF AUTOIMMUNE DISEASES” (priority 2008, published 2011).

Tested on: Rats of OFA (SD) strain
Assay: Arthritis induced by Freund's adjuvant (Mycobacterium butyricum) in the rat
Format: in vivo
Method: We used the model of arthritis induced by Freund' adjuvant as described in the article of Milan et al., J Neurosci 1986; 6: 899-906. The rats are administered with Mycobacterium butyricum develop usually a severe polyarthritis which resembles to that in human. Rats of OFA (SD) strain (Oncins France Strain A) weighing approximately 200 g received an […] of a 10 mg/ml Mycobacterium butyricum solution at the articulation of the right ankle. For all the measured parameters, the rats were divided into 5 groups (8 rats/group) in the following way: • reference group: the rats received a paraffin injection instead of the solution of Mycobacterium butyricum (no induced arthritis) then receive an intraperitoneal injection of saline solution; • arthritic group+injection of saline solution; • arthritic group+intraperitoneal injection of 3 mg/kg indomethacin; the indomethacin being a NSAID classically used as reference in this kind of test; • arthritic group+intraperitoneal injection of […]; • arthritic group+intraperitoneal injection of […]. The products are administered 5 times per week during 3 weeks. At the beginning of the experimentation (day 0), one determines the initial values for the different parameters (volume of the leg, macroscopic clinical score, sedimentation test and hypersensitivity). During the experiment, several parameters are measured: • the volume of the leg (“paw latency duration”); • the globular sedimentation test (“Erythrocyte Sedimentation rate”); • the macroscopic score: • “0” means that no sign of arthritis was detected; • “1” means that a swelling or an inflammation was detected on a leg; • “2” means that a swelling or an inflammation was detected on two legs; • “3” means that a swelling or an inflammation was detected on at lest 3 legs; • “4” means that a swelling or an inflammation was detected on the 4 legs. • hypersensitivity according to the plantar test: carried out according to Yukinori Nagakura and al, Allodynia and hyperalgesia in adjuvant-induced arthritic rats: time course of progression and efficacy of analgesics, JPET 306: 490-497, 2003, or in Andersen M L and al “Evaluation of acute and chronic treatments with Harpagophytum procumbens one Freund's adjuvant-induced arthritis in rats”. J. Ethnopharmacol. 2004 April; 91 (2-3): 325-30; • the erythrocyte sedimentation rate (ESR): the increase in this one generally accompanies the clinical symptoms met in induced arthritis. The ESR is measured in the arthritic rats (at Day 21) 1 hour and 2 hours after the injection of PAT or indomethacin, according to the protocol of Mahajan S G, et al., Protective Effect of Ethanolic Extract of Seeds of Moringa will oleifera Lam. Against Inflammation Associated with Development of Arthritis in Rats. J. Immunotoxicol. 2007 January; 4 (1): 39-47.

## COc1ccc2c(c1)c(CC(=O)O)c(C)n2C(=O)c1ccc(Cl)cc1 [indomethacin]
Day 16, PAT at the 2 doses, indomethacin, equivalent to the non-arthritic reference group, FIG. 6
  hypersensitivity measured by the plantar test: very reduced
Arthritic rats, Day 21, FIG. 7
  erythrocyte sedimentation rate (ESR): reduced in a very important way
Compared to arthritic rats which received saline solution, until Day 21, FIG. 5
  clinical macroscopic score: significant reduction
During the first 12 days, PAT 0.4 and 4 μg/kg i.p., indomethacin 3 mg/kg i.p., 5 times per week, FIG. 4
  volume of the leg: do not have a notable effect
From Day 14 until Day 21, PAT 0.4 and 4 μg/kg i.p., indomethacin 3 mg/kg i.p., FIG. 4
  inflammation and volume of the leg: notable reduction
